From patent US5159081A, “Intermediates of peripherally selective N-carbonyl-3,4,4-trisubstituted piperidine opioid antagonists” (Eli Lilly and Company, priority 1991, dated 1992)
Counter-ions that a name gives are not always drawn. Like-named read-outs stand apart in the source and are kept apart here.

What was measured:
[1] = target: T1, opioid receptor (Mus musculus, UniProt P42866); experiment: in vivo; design: species or system CF-1 male mice; conditions: sc
T1 construct: Five CF-1 male mice (Charles River, Portage, MI); from tissue; host or cells: living CF-1 male mice (whole animal, endogenous receptor)

[2] = target: T2, mu receptor (Rattus norvegicus, UniProt P33535); experiment: Naloxone [3H] opioid receptor binding assay (mu receptor); design: species or system rat (male Sprague Dawley)
T2 construct: The brain tissue, rat whole brain minus cerebellum for mu was homogenized; from tissue; host or cells: brain minus cerebellum of male Sprague Dawley rats, homogenate fraction

[3] = tested on: peripheral opioid receptors; experiment: mouse diarrhea test: precipitated diarrhea in morphine-maintained mice (peripheral opioid activity); assay type: in vivo
[4] = target: peripheral opioid receptors (Mus musculus, UniProt P42866); experiment: as above; assay type: in vivo; conditions: mouse diarrhea test, morphine-maintained mice, subcutaneous or oral, 30 min observation
[5] = mouse writhing test, […], s.c. 20 min before acetic acid, read-out: AD50 (the source's name)
[6] = 20 min, pH 7.4, read-out: % displacement at 10 nM
[7] = 20 min, pH 7.4, read-out: % displacement at 100 nM
[8] = […], rat whole brain minus cerebellum, [3H]naloxone 0.5 nM, pH 7.4, 37° C., 20 min, read-out: Ki
[9] = AD50 mouse writhing / ED50 mouse diarrhea, higher = greater relative peripheral antagonism
[10] = 20 min, pH 7.4, 10 nM test compound, [3H]naloxone 0.5 nM, mu receptor, read-out: % displacement at 10 nM
[11] = 20 min, pH 7.4, 100 nM test compound, [3H]naloxone 0.5 nM, mu receptor, read-out: % displacement at 100 nM

T2 sequence (P33535 whole entry): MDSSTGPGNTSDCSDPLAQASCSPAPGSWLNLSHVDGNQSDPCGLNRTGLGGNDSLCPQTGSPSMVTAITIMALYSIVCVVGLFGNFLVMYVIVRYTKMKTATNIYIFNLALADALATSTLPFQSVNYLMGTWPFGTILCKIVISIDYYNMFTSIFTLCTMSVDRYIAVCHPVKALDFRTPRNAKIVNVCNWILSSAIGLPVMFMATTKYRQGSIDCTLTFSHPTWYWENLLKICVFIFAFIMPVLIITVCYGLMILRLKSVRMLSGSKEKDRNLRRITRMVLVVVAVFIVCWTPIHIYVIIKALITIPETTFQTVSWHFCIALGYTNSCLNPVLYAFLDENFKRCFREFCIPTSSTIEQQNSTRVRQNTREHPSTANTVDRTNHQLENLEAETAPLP
Sequence of peripheral opioid receptors (Mus musculus, UniProt P42866) (P42866 whole entry): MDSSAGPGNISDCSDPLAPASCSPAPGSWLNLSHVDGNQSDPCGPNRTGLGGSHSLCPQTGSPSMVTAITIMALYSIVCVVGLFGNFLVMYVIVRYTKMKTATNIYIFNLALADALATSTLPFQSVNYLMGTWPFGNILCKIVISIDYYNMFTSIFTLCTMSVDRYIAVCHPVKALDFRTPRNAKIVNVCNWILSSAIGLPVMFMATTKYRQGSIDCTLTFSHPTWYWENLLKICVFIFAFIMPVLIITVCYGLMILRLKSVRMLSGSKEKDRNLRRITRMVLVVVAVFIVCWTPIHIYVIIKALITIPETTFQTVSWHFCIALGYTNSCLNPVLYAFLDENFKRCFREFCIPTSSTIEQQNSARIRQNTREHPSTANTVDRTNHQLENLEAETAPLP
T1 sequence (P42866 whole entry): as above

Row | SMILES | ED50 [1, 5] [mg/kg] | inhibition at 0.01 µM [2, 6] [%] | inhibition at 0.1 µM [2, 7] [%] | Ki [2, 8] [nM] | Ratio (ratio of AD50 to ED50) [3, 9] | ED50 [4] [mg/kg] | ED50 ([1]; mouse, read-out: AD50) [mg/kg] | Ki [2] [nM] | Ratio (ratio of AD50 to ED50) ([3]; mouse, in vivo) | inhibition at 0.01 µM [2, 10] [%] | inhibition at 0.1 µM [2, 11] [%] | ED50 ([4]; 0.5 h, read-out: ED50) [mg/kg]
1 | CCOC(=O)CCC(=O)NC(CCN1CC[C@@](C)(c2cccc(O)c2)[C@@H](C)C1)CC(C)C (stereo partly shown) [Example 2B, 4-[[1-[2-[4-(3-hydroxyphenyl)-3,4-dimethyl-1-piperidinyl]-ethyl]-3-methylbutyl)amino]-4-oxobutanoic acid ethyl ester] | 10.2 | 93 | 99 | 1.2 | 54 | 0.19 | – | – | – | – | – | –
2 | CC(C)CC(CCN1CC[C@@](C)(c2cccc(O)c2)[C@@H](C)C1)NC(=O)CCCC(=O)O (stereo partly shown) [Example 4, 5-[[1-(2-methylpropyl)-3-[4-(3-hydroxyphenyl)-3,4-dimethyl-1-piperidinyl]propyl]amino]-5-oxopentanoic acid] | – | 86 | 94 | – | – | 0.07 | 17.5 | 1.41 | 250 | – | – | –
3 | CCOC(=O)CC(=O)N[C@H](Cc1ccccc1)CN1CC[C@@](C)(c2cccc(O)c2)[C@@H](C)C1 [Example 10, Ethyl trans-(3R,4R,R)-3-((2-(4-(3-hydroxyphenyl)-3,4-dimethyl-1-piperidinyl)-1-(D-(phenylmethyl)ethyl)amino))-3-oxopropionate hydrochloride] | 9.3 | 61 | 94 | 1.46 | 78 | 0.12 | – | – | – | – | – | –
4 | C[C@H]1CN(C[C@@H](Cc2ccccc2)NC(=O)CC(=O)O)CC[C@@]1(C)c1cccc(O)c1 [Example 11, Trans-3-((2-(4-(3-hydroxyphenyl)-3,4-dimethyl-1-piperidinyl)-1-(D-(phenylmethyl)ethyl)amino))-3-oxopropionic acid] | 12.4 | – | – | – | 41 | – | – | – | – | 36 | 80 | 0.3
5 | CCOC(=O)CC(=O)N[C@H](Cc1ccccc1)CN1CC[C@](C)(c2cccc(O)c2)[C@H](C)C1 [Example 12, Ethyl trans-3-((2-(4-(3-hydroxyphenyl)-3,4-dimethyl-1-piperidinyl)-1-(D-(phenylmethyl)ethyl)amino))-3-oxopropionate hydrochloride] | 20 | 43 | 87 | – | – | 0.20 | – | – | 100 | – | – | –
6 | C[C@@H]1CN(C[C@@H](Cc2ccccc2)NC(=O)CC(=O)O)CC[C@]1(C)c1cccc(O)c1 [Example 13, Trans-3-((2-(4-(3-hydroxyphenyl)-3,4-dimethyl-1-piperidinyl)-1-(D-(phenylmethyl)ethyl)amino))-3-oxopropionic acid monohydrate] | > 40 | – | – | – | > 138 | – | – | – | – | 24 | 72 | 0.29
7 | CCNC(=O)N[C@H](Cc1ccccc1)CN1CC[C@](C)(c2cccc(O)c2)[C@H](C)C1 [Example 17, N-Ethyl-N'-2-(D-(1-(trans-4-(3-hydroxyphenyl)-3,4-dimethyl-1-piperidinyl)-3-phenyl)propyl)urea hydrochloride monohydrate] | > 40 | – | – | – | > 12 | – | – | – | – | 38 | 82 | 3.28
8 | C[C@H]1CN(CC(Cc2ccccc2)NC(=O)CCCNC(=O)OC(C)(C)C)CC[C@@]1(C)c1cccc(O)c1 (stereo partly drawn) [Example 18, Trans-(4-((1-((4-(3-hydroxyphenyl)-3,4-dimethyl-1-piperidinyl)methyl)-2-phenylethyl)amino)-4-oxobutyl) carbamic acid, 1,1 dimethylethyl ester monohydrochloride] | 1.31 | 86 | 100 | 0.63 | 4.5 | 0.30 | – | – | – | – | – | –
9 | CC(=O)NC(CCCNC(=N)N[N+](=O)[O-])C(=O)NCCN1CCC(C)(c2cccc(O)c2)C(C)C1 (stereo not drawn) [Example 42, N-(2-(trans-4-(3-hydroxyphenyl)-3,4-dimethyl-1-piperidinyl)ethyl)-2-(acetylamino)-5-((imino(nitroamino)-methyl)amino)pentanamide monohydrate] | > 20 | – | – | – | > 160 | – | – | – | – | 44 | 89 | 0.12
10 | CC(C)CC(=O)NC(CCCNC(=N)N[N+](=O)[O-])C(=O)NCCN1CCC(C)(c2cccc(O)c2)C(C)C1 (stereo not drawn) [Example 43, Trans-N-(2-(4-(3-hydroxyphenyl)-3,4-dimethyl-1-piperidinyl)ethyl)-2-((3-methyl-1-oxobutyl)amino)-5-((imino(nitroamino)methyl)amino) pentanamide] | > 10 | – | – | – | > 10 | – | – | – | – | 59 | 97 | < 1
11 | CC1CN(CCNC(=O)[C@H](CCCNC(=N)N[N+](=O)[O-])NC(=O)OC(C)(C)C)CCC1(C)c1cccc(O)c1 (stereo partly drawn) [Example 44, (1-(((2-(Trans-4-(3-hydroxyphenyl)-3,4-dimethyl-1-piperidinyl)ethyl)amino)carbonyl)-4-((imino(nitroamino)methyl)amino)butyl) carbamic acid, 1,1-dimethylethyl ester] | > 2 | 63 | 85 | 2.34 | > 30 | 0.07 | – | – | – | – | – | –
12 | C[C@H]1CN(C[C@H](CC2CCCCC2)NC(=O)CCCC(=O)O)CC[C@@]1(C)c1cccc(O)c1 [Example 45D] | > 40 | 82 | 94 | 0.56 | > 1379 | 0.029 | – | – | – | – | – | –
13 | C[C@H]1CN(C[C@@H](CC2CCCCC2)NC(=O)CCCC(=O)O)CC[C@@]1(C)c1cccc(O)c1 [Example 46D] | 6.5 | 48 | 84 | – | 72 | 0.09 | – | – | – | – | – | –
14 | C[C@@H]1CN(C[C@H](CC2CCCCC2)NC(=O)CCCC(=O)O)CC[C@]1(C)c1cccc(O)c1 [Example 47D] | > 40 | 85 | 95 | 1.55 | > 4000 | 0.01 | – | – | – | – | – | –
15 | C[C@@H]1CN(C[C@@H](CC2CCCCC2)NC(=O)CCCC(=O)O)CC[C@]1(C)c1cccc(O)c1 [Example 48D] | > 40 | 30 | 78 | – | > 800 | 0.05 | – | – | – | – | – | –
16 | COC(=O)CCCC(=O)N[C@@H](CC1CCCCC1)CN1CC[C@@](C)(c2cccc(O)c2)[C@@H](C)C1 [Example 50] | 20 | 87 | 99 | 3.24 | 357 | 0.056 | – | – | – | – | – | –
17 | CCOC(=O)CCCC(=O)N[C@@H](CC1CCCCC1)CN1CC[C@@](C)(c2cccc(O)c2)[C@@H](C)C1 [Example 52] | 28 | 87 | 96 | 2.34 | 1400 | 0.02 | – | – | – | – | – | –
18 | CCCOC(=O)CCCC(=O)N[C@@H](CC1CCCCC1)CN1CC[C@](C)(c2cccc(O)c2)[C@H](C)C1 [Example 53] | > 40 | 50 | 88 | – | > 38 | 1.06 | – | – | – | – | – | –
19 | CCCOC(=O)CCCC(=O)N[C@@H](CC1CCCCC1)CN1CC[C@@](C)(c2cccc(O)c2)[C@@H](C)C1 [Example 54] | 27 | 81 | 96 | 5.07 | 18000 | 0.0015 | – | – | – | – | – | –
20 | CC(C)COC(=O)CCCC(=O)N[C@@H](CC1CCCCC1)CN1CC[C@](C)(c2cccc(O)c2)[C@H](C)C1 [Example 55] | > 40 | – | – | – | > 800 | – | – | – | – | 40 | 86 | 0.05
21 | CC(C)COC(=O)CCCC(=O)N[C@@H](CC1CCCCC1)CN1CC[C@@](C)(c2cccc(O)c2)[C@@H](C)C1 [Example 56] | > 40 | – | – | – | 20000 | – | – | – | – | 61 | 92 | 0.002
22 | CCCCCCCOC(=O)CCCC(=O)N[C@@H](CC1CCCCC1)CN1CC[C@@](C)(c2cccc(O)c2)[C@@H](C)C1 [Example 57] | > 40 | – | – | – | > 588 | – | – | – | – | 0 | 9 | 0.068
23 | CC(C)COC(=O)CCCC(=O)N[C@H](CC1CCCCC1)CN1CC[C@](C)(c2cccc(O)c2)[C@H](C)C1 [Example 58] | > 40 | – | – | – | > 235 | – | – | – | – | 0 | 38 | 0.17
24 | CC(C)COC(=O)CCCC(=O)N[C@H](CC1CCCCC1)CN1CC[C@@](C)(c2cccc(O)c2)[C@@H](C)C1 [Example 59] | > 40 | – | – | – | > 678 | – | – | – | – | 6 | 53 | 0.059
